Experiment [1] relates to GABARAP. The experiment in a line: ITC binding to GABARAP. Conditions: for selectivity towards GABARAP proteins (in words): GABARAP versus LC3, FIGS. 2E and 4C. Also noted: species or system human.
For experiment [2], the system named is LC3-positive puncta in COS7 cells. The experiment in a line: LC3-positive puncta in starved COS7 cells. Type of experiment: cell-based. Conditions: COS7 cells over-expressing mCherry-tagged peptide, nutrients deprivation. An excerpt:
(§1) We used the well-established cultured COS7 cells for assessing autophagy inhibitions by the AnkB/G LIR peptides over-expressed in the cells. We quantified the numbers of endogenous LC3- or GABARAP-positive puncta, which represent LC3 or GABARAP-containing autophagic structures, as readouts to quantify autophagy inhibitions (Klionsky et al., 2016; Mizushima et al., 2010). After nutrients deprivation, obvious accumulations of LC3- or GABARAP-positive puncta could be observed in cells over-expressing mCherry only, indicating induction of autophagy by starvation (FIG. 6C6&E6). […] In contrast, expression of the mCherry-AnkB WR peptide had no impact on the LC3- or GABARAP-puncta numbers (i.e. with the same puncta numbers as expressing the mCherry vector control; FIG. 6C-F).

The subject of experiment [3] is GABARAP-positive puncta in COS7 cells. The experiment in a line: GABARAP-positive puncta in starved COS7 cells. Type of experiment: cell-based. Conditions: COS7 cells over-expressing mCherry-tagged peptide, nutrients deprivation.
Excerpt: as §1

In experiment [4] the target is T1, LGG-2 (Caenorhabditis elegans, UniProt Q23536).
T1 sequence (Q23536 1-130): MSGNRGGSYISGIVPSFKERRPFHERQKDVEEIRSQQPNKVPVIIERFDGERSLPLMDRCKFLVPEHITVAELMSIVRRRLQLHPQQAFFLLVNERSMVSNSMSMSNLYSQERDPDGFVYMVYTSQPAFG
The experiment in a line: ITC binding to purified LGG-2. The arrangement: species or system C. elegans. An excerpt:
(§2) C. elegans provides an ideal platform to study autophagy and especially to investigate roles of different members of Atg8 in autophagy, because worms contain both GABARAP and LC3 subfamily Atg8s and yet simple enough with one gene for each subfamily (worm lgg-1 and lgg-2 are […] of GABARAP and LC3, respectively). It has also been shown earlier on that lgg-1 and lgg-2 act non-redundantly in autophagy (Wu et al., 2015). Prior to performing autophagy assays in worms, we measured the bindings of various AnkB/G LIR peptides to purified LGG-1 and LGG-2 using the same method as we have described for FIGS. 1&3.

Experiment [5] concerns SQST-1::GFP. In words: SQST-1::GFP aggregate accumulation in C. elegans expressing the peptides. Type of experiment: in vivo. The text has this: We next determined whether the AnkB WT peptide blocks autophagy in C. elegans. Autophagy is required for degradation of a variety of protein substrates, including the C. elegans p62 homolog SQST-1 during development (Tian et al., 2010). In the wild type animals, SQST-1::GFP is weakly expressed and diffusely localized in the cytoplasm, while numerous SQST-1 aggregates accumulate in autophagy mutants (Tian et al., 2010). The AnkB WT peptide fused with the Cherry reporter (Cherry::AnkB WT) or Cherry::AnkB WR was expressed under the control of the nfya-1 promoter, which is expressed ubiquitously from the embryonic to adult stages. The expression plasmids were injected into animals carrying integrated SQST-1::GFP reporter (bpIs151) and transgenic lines were obtained and analyzed.
Similarly, we also tested the blocking effect of AnkG peptides in C. elegans. […] This observation is somewhat different from that in mammalian heterologous cells. This may be explained by the different roles of the two families in different organisms. In mammal, p62 degradation is dependent on LC3 but not GABARAP (Maruyama et al., 2014), so blocking GABARAP binding has minimal effect on p62 degradation. However, in C. elegans, LGG-1 acts upstream to LGG-2 (Manil-Segalen et al., 2014; Wu et al., 2015), so blocking either of them will lead to defect in SQST-1 degradation.
Although a large collection of autophagy mutants were isolated from genetic screens (Tian et al., 2010), assays to inhibit autophagy activity in a spatiotemporal manner are not available. We investigated whether the AnkB peptide can block autophagy in a tissue- and temporal-specific manner. The AnkB peptide was expressed under the control of tissue-specific promoters, including the promoter of myo-3 for body wall muscle cells, y37A1B.5 for hypodermal cells and vha-6 for intestinal cells. The expression constructs were injected into animals carrying the corresponding tissue-specific SQST-1::GFP expression integrated lines.
We also examined whether the AnkB peptide can impair autophagy in a temporal control manner. The expression of AnkB WT was driven by the promoter of col-19, which is expressed in hypodermal cells from the young adult stage onwards.

The target in experiment [6] is LGG-1 (Caenorhabditis elegans, UniProt Q09490). The experiment in a line: ITC binding to purified LGG-1. The arrangement: species or system C. elegans.
Excerpt: as §2

Experiment [7] has as its system p62-positive puncta in COS7 cells. In words: p62-positive puncta in starved COS7 cells. Type of experiment: cell-based. As to conditions: COS7 cells expressing mCherry-tagged peptide, starvation. The text has this: We further quantified the level of p62, one of the best studied selective autophagy substrates, to monitor the autophagic flux in COS7 cells expressing various AnkB/G LIR peptides under the starvation condition (Klionsky et al., 2016; Mizushima et al., 2010). Upon autophagy induction, p62 forms aggregates via its LIR motif-mediated interactions to Atg8s and subsequent incorporation into autophagosomes (Bjorkoy et al., 2005; Pankiv et al., 2007). Only a relatively low and steady level of p62 aggregates is formed if autophagy flux is normal (i.e. p62-positive autophagosomes are steadily cleared by fusing with lysosomes; (Bjorkoy et al., 2005)), and this is indeed the case when cells were expressed with the mCherry vector control (FIG. 7F). […] This is consistent with a previous siRNA-based study showing that knockdown of LC3 but not GABARAP causes p62 accumulation in COS7 cells (Maruyama et al., 2014). Taken together, the above cell-based assays reinforce our earlier conclusion derived from biochemical and structural studies, that the AnkB WT peptide can function as potent autophagy inhibitor by targeting all members of the Atg8 family and the AnkG WT or ER peptides can selectively target the GABARAPs and spare the LC3s.

Experiment [8] relates to C. elegans. The experiment in a line: C. elegans hatching and development. Conditions: Pnfya-1::Cherry fusion. Type of experiment: in vivo. An excerpt: Autophagy plays critical roles in various physiological processes occurring during development or in adult C. elegans (Zhang et al., 2015). Fewer autophagy mutants develop into larvae. […] 60.8% embryos expressing the AnkB WT peptide hatched, compared to 96.9% of embryos expressing AnkB WR (FIG. 8G). Autophagy mutants also grow slowly. […] Thus, the AnkB WT peptide blocks autophagy during C. elegans development.

The subject of experiment [9] is C. elegans. The experiment in a line: C. elegans life span. Type of experiment: in vivo. The text has this: Autophagy is known to regulate the adult worm aging process. […] The autophagy defect caused by AnkB was weaker than that in autophagy mutants.

Entries after “also recorded” stand apart in the source; their conditions may differ.

Chain of LGG-1 (Q09490 1-116 limits assumed): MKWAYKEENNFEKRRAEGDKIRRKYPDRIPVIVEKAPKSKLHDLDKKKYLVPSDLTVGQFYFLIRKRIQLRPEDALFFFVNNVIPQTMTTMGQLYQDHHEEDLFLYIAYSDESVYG

In the case of “AnkG LIR C-helix alone: AnkG LIR C-helix alone (aa 1993-2010) (SSEEIREARQQAAASQSP; UniProt Q12955 1993-2010, looked up, fragment)”, the “binding to GABARAP (in words)” value in experiment [1] (ITC) was “no detectable binding”.

As for “E1599R modification of AnkB: AnkB LIR peptide with E1599R modification (VEEEWVIVSDERIEEARQKAPLEITEY; AnkB E1599R human recombinant peptide, prepared in the lab)”, the “selectivity towards GABARAP proteins (in words)” value in experiment [1] is listed as “increase in selectivity towards GABARAP proteins”.

In the case of “E1996R modification of AnkG: AnkG LIR peptide with E1996R modification (PEDDWTEFSSERIREARQAAASHAPS; AnkG E1996R rat recombinant peptide, prepared in the lab)”, the “selectivity towards GABARAP proteins (in words)” value in experiment [1] was “increase in selectivity towards GABARAP proteins”.

As for “PEDDWTRFSSEEIREARQAAASHAPS (AnkG E1991R rat recombinant peptide, prepared in the lab) [modified from rat 480 kD AnkG residues 1985-2010]”, the LC3-positive puncta number entry in experiment [2] is reported as “essentially no impact”. Also, the GABARAP-positive puncta number result in experiment [3] is recorded as “potently inhibited”. For the same substance, the “weaker affinity towards LGG-2 than LGG-1” value in [4] was ~1,000 fold. Besides, the “SQST-1::GFP aggregates” value is “caused accumulation of SQST-1::GFP aggregates” in experiment [5] (Cherry fusion, hyp7 promoter, epidermis, embryonic to adult stages); “a large number of SQST-1::GFP aggregates accumulate” in experiment [5] (Phyp7::mCherry::AnkG peptides, hypodermis, L4 larvae); “accumulation of SQST-1::GFP aggregates” in experiment [5] (mCherry::AnkG peptides, embryonic stage (FIG. 10B-D)). The “selectivity towards GABARAP proteins (in words)” value in [1] is recorded as “increase in selectivity towards GABARAP proteins”. Moreover, the “binding to GABARAP (in words)” value in experiment [1] (ITC) is “slightly weaker affinity”. Besides, the “binding to LGG-1 (in words)” value in experiment [6] is given as “retained strong binding”. The “p62-positive puncta versus mCherry vector control” value in experiment [7] was “no statistically significant increase”.

In the case of “VEEEWVIVSDEEIEEARQKAPLEITEY [AnkB LIR, recombinant peptide from natural human 440 kD AnkB residues 1588-1614]”, the LC3-positive puncta number entry in experiment [2] was “reduced the LC3- and GABARAP-puncta to the background level”. Further, the “additional time for embryos to develop into L1 larvae compared to AnkB WR” value in [8] was “approximately two more hours”. In experiment [8], the “additional time to develop into young adults compared to AnkB WR” value was roughly 6 h. In addition, the “embryos hatched (hatch rate)” value in experiment [8] came to 60.8%. Besides, the GABARAP-positive puncta number entry in experiment [3] was “reduced the LC3- and GABARAP-puncta to the background level”. Also, the “binding to LGG-2 (in words)” value in experiment [4] (purified LGG-2) is “binds very strongly”. In addition, the “SQST-1::GFP aggregates” value in experiment [5] (Cherry fusion, FIG. 8, embryo) was “a large number of SQST-1::GFP aggregates accumulated”; in experiment [5] (Cherry fusion, FIG. 8, larvae), “a large number of SQST-1::GFP aggregates”; in experiment [5] (Cherry fusion, nfya-1 promoter (ubiquitous), multiple tissues, embryonic to adult stages), “accumulated a large number of SQST-1::GFP aggregates”; in experiment [5] (col-19 promoter (hypodermal cells from young adult stage onwards), adult), “adult-specific accumulation of SQST-1::GFP aggregates”; in [5] (col-19 promoter, embryonic to L4 larval stages (no peptide expression yet), listed as AnkB WT), “no aggregates were found; also recorded: no SQST-1::GFP aggregates”; in experiment [5] (mCherry fusion, hypodermal cells, embryo (FIG. 9)), “a large number of SQST-1::GFP aggregates accumulate”. For the same substance, the “SQST-1::GFP aggregates” value is “a large number of SQST-1::GFP aggregates accumulate” in experiment [5] (mCherry fusion, hypodermis, L4 larvae (FIG. 9)); “SQST-1::GFP aggregates accumulate” in experiment [5] (myo-3 promoter, muscle cells, L4 larvae); “a large number of SQST-1::GFP aggregates accumulate” in experiment [5] (myo-3 promoter, muscle, embryo); “a large number of SQST-1::GFP aggregates accumulated” in experiment [5] (tissue-specific promoters myo-3, y37A1B.5, vha-6, embryonic to adult stages); “SQST-1::GFP aggregates accumulate” in [5] (vha-6 promoter, intestine cells, embryo); “SQST-1::GFP aggregates accumulate” in experiment [5] (vha-6 promoter, intestine cells, larvae (FIG. 10S, 10T)). Further, in [5] (myo-3 promoter, muscle cells, L4 larvae (FIG. 10W-Y), listed as AnkB WT), the “dependence of SQST-1::GFP aggregates on peptide expression level” value is listed as “correlate with the degree of autophagy inhibition; also recorded: increases with increasing expression”. In addition, in experiment [1] (ITC), the “affinity to GABARAP higher than AnkG LIR” value is “about 10 fold”. Besides, the “binding to LGG-1 (in words)” value in experiment [6] was “binds very strongly”. The “p62-positive puncta versus mCherry vector control” value in experiment [7] is recorded as “dramatically increased”. Also, the Median lifespan was found to be 18.12 days in [9] (Pmyo-3::ch:: fusion (muscle)), 16.32 days in experiment [9] (Pnfya-1::ch:: fusion (ubiquitous)), 18.87 days in experiment [9] (Pvha-6::ch:: fusion (intestine)) and 16.64 days in experiment [9] (Py37a1b.5::ch:: fusion (hypodermal cells)). The “life span compared to animals expressing Cherry::AnkB WR” value in experiment [9] (Pnfya-1::Cherry fusion) is “dramatically shortened the life span”; in experiment [9] (expressed in muscle cells and intestinal cells), “did not significantly reduce the life span”. Besides, the mean life span entry in [9] (expressed in hypodermal cells) is listed as “slightly reduced the mean life span”.

The values are drawn from patent US11229680B2, “Autophagy inhibitors” (The Hong Kong University of Science and Technology, priority 2017, dated 2022).
